# System: RS4;11 cells
# Assay: RS4;11 cell viability assay (CellTiter Glo);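 also: acute lymphoblastic leukemia line RS4,11, EC50 derived from percentage of viable cells after treatment relative to untreated controls, cell killing taken as a measure of Bcl-2 inhibition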
# Format: cell-based, human
# Conditions: Homo sapiens, RS4-11, 48 h, 50,000 cells per well, 10% human serum, 48 hours; read-out: RS4; 11 EC50 Values
# Procedure: The acute lymphoblastic leukemia (ALL) cell line RS4;11 was used as the primary human cell line to assess the cellular activity of Bcl-2 selective agents in vitro and their efficacy in vivo.
# Cell cytotoxicity EC50 values were assessed using CellTiter Glo (Promega) according to the manufacturer's recommendations. The EC50 values were determined as a percentage of viable cells following treatment compared to the untreated control cells.
row,SMILES,EC50
1,"CC1(C)CCC(CN2CCN(c3ccc(C(=O)NS(=O)(=O)c4ccc(NCC5CCOCC5)c(S(F)(F)(F)(F)F)c4)c(Oc4cnc5[nH]ccc5c4)c3)CC2)=C(c2ccc(Cl)cc2)C1 [Example 233, 4-(4-{[2-(4-chlorophenyl)-4,4-dimethylcyclohex-1-en-1-yl]methyl}piperazin-1-yl)-N-({3-(pentafluoro-lambda˜6˜-sulfanyl)-4-[(tetrahydro-2H-pyran-4-ylmethyl)amino]phenyl}sulfonyl)-2-(1H-pyrrolo[2,3-b]pyridin-5-yloxy)benzamide]",> 1000 nM
2,"COC1(COc2ccc(S(=O)(=O)NC(=O)c3ccc(N4CCN(CC5=C(c6ccc(Cl)cc6)CC(C)(C)CC5)CC4)cc3Oc3cnc4[nH]ccc4c3)cc2[N+](=O)[O-])CCOCC1 [Example 234, 4-(4-{[2-(4-chlorophenyl)-4,4-dimethylcyclohex-1-en-1-yl]methyl}piperazin-1-yl)-N-({4-[(4-methoxytetrahydro-2H-pyran-4-yl)methoxy]-3-nitrophenyl}sulfonyl)-2-(1H-pyrrolo[2,3-b]pyridin-5-yloxy)benzamide]",135 nM
3,"CC1(C)CCC(CN2CCN(c3ccc(C(=O)NS(=O)(=O)c4ccc(O[C@@H]5CCN(C(CF)CF)C5)c([N+](=O)[O-])c4)c(Oc4cnc5[nH]ccc5c4)c3)CC2)=C(c2ccc(Cl)cc2)C1 [Example 235, 4-(4-{[2-(4-chlorophenyl)-4,4-dimethylcyclohex-1-en-1-yl]methyl}piperazin-1-yl)-N-[(4-{[(3R)-1-(1,3-difluoropropan-2-yl)pyrrolidin-3-yl]oxy}-3-nitrophenyl)sulfonyl]-2-(1H-pyrrolo[2,3-b]pyridin-5-yloxy)benzamide]",32.3 nM
4,"CC1(C)CCC(CN2CCN(c3ccc(C(=O)NS(=O)(=O)c4ccc(NN5CCN(C6COC6)CC5)c([N+](=O)[O-])c4)c(Oc4cnc5[nH]ccc5c4)c3)CC2)=C(c2ccc(Cl)cc2)C1 [Example 236, 4-(4-{[2-(4-chlorophenyl)-4,4-dimethylcyclohex-1-en-1-yl]methyl}piperazin-1-yl)-N-[(3-nitro-4-{[4-(oxetan-3-yl)piperazin-1-yl]amino}phenyl)sulfonyl]-2-(1H-pyrrolo[2,3-b]pyridin-5-yloxy)benzamide]",42.9 nM
5,"CC1(C)CCC(CN2CCN(c3ccc(C(=O)NS(=O)(=O)c4ccc(NN5CCN(C6CCOCC6)CC5)c([N+](=O)[O-])c4)c(Oc4cnc5[nH]ccc5c4)c3)CC2)=C(c2ccc(Cl)cc2)C1 [Example 237, 4-(4-{[2-(4-chlorophenyl)-4,4-dimethylcyclohex-1-en-1-yl]methyl}piperazin-1-yl)-N-[(3-nitro-4-{[4-(tetrahydro-2H-pyran-4-yl)piperazin-1-yl]amino}phenyl)sulfonyl]-2-(1H-pyrrolo[2,3-b]pyridin-5-yloxy)benzamide]",53.2 nM
6,"CC1(C)CCC(CN2CCN(c3ccc(C(=O)NS(=O)(=O)c4ccc(N[C@@H]5CCOC5)c([N+](=O)[O-])c4)c(Oc4cnc5[nH]ccc5c4)c3)CC2)=C(c2ccc(Cl)cc2)C1 [Example 238, 4-(4-{[2-(4-chlorophenyl)-4,4-dimethylcyclohex-1-en-1-yl]methyl}piperazin-1-yl)-N-({3-nitro-4-[(3R)-tetrahydrofuran-3-ylamino]phenyl}sulfonyl)-2-(1H-pyrrolo[2,3-b]pyridin-5-yloxy)benzamide]",103 nM
7,"CC1(C)CCC(CN2CCN(c3ccc(C(=O)NS(=O)(=O)c4ccc(NCC5CCC(F)(F)CC5)c([N+](=O)[O-])c4)c(Oc4cnc5[nH]ccc5c4)c3)CC2)=C(c2ccc(Cl)cc2)C1 [Example 239, 4-(4-{[2-(4-chlorophenyl)-4,4-dimethylcyclohex-1-en-1-yl]methyl}piperazin-1-yl)-N-[(4-{[(4,4-difluorocyclohexyl)methyl]amino}-3-nitrophenyl)sulfonyl]-2-(1H-pyrrolo[2,3-b]pyridin-5-yloxy)benzamide]",23.7 nM
8,"CC1(C)CCC(CN2CCN(c3ccc(C(=O)NS(=O)(=O)c4ccc(NC5CCN(C(C)(C)C)CC5)c(S(=O)(=O)C(F)(F)F)c4)c(Oc4cnc5[nH]ccc5c4)c3)CC2)=C(c2ccc(Cl)cc2)C1 [Example 240, N-({4-[(1-tert-butylpiperidin-4-yl)amino]-3-[(trifluoromethyl)sulfonyl]phenyl}sulfonyl)-4-(4-{[2-(4-chlorophenyl)-4,4-dimethylcyclohex-1-en-1-yl]methyl}piperazin-1-yl)-2-(1H-pyrrolo[2,3-b]pyridin-5-yloxy)benzamide]",17.3 nM
9,"CC1(C)CCC(CN2CCN(c3ccc(C(=O)NS(=O)(=O)c4ccc(NCC5CN(C6COC6)CCO5)c(S(=O)(=O)C(F)(F)F)c4)c(Oc4cnc5[nH]ccc5c4)c3)CC2)=C(c2ccc(Cl)cc2)C1 (stereo not drawn) [Example 241, 4-(4-{[2-(4-chlorophenyl)-4,4-dimethylcyclohex-1-en-1-yl]methyl}piperazin-1-yl)-N-({4-({[4-(oxetan-3-yl)morpholin-2-yl]methyl}amino)-3-[(trifluoromethyl)sulfonyl]phenyl}sulfonyl)-2-(1H-pyrrolo[2,3-b]pyridin-5-yloxy)benzamide]",114 nM
10,"CC1(C)CCC(CN2CCN(c3ccc(C(=O)NS(=O)(=O)c4cnc(NCC5(F)CCOCC5)c(Cl)c4)c(Oc4cnc5[nH]ccc5c4)c3)CC2)=C(c2ccc(Cl)cc2)C1 [Example 242, N-[(5-chloro-6-{[(4-fluorotetrahydro-2H-pyran-4-yl)methyl]amino}pyridin-3-yl)sulfonyl]-4-(4-{[2-(4-chlorophenyl)-4,4-dimethylcyclohex-1-en-1-yl]methyl}piperazin-1-yl)-2-(1H-pyrrolo[2,3-b]pyridin-5-yloxy)benzamide]",223 nM
11,"CC1(C)CCC(CN2CCN(c3ccc(C(=O)NS(=O)(=O)c4cnc(NC5CCN(C6CC6)CC5)c(Cl)c4)c(Oc4cnc5[nH]ccc5c4)c3)CC2)=C(c2ccc(Cl)cc2)C1 [Example 243, N-({5-chloro-6-[(1-cyclopropylpiperidin-4-yl)amino]pyridin-3-yl}sulfonyl)-4-(4-{[2-(4-chlorophenyl)-4,4-dimethylcyclohex-1-en-1-yl]methyl}piperazin-1-yl)-2-(1H-pyrrolo[2,3-b]pyridin-5-yloxy)benzamide]",807 nM
12,"CC1(C)CCC(CN2CCN(c3ccc(C(=O)NS(=O)(=O)c4cnc(OC[C@@H]5CN(CC#N)CCO5)c(Cl)c4)c(Oc4cnc5[nH]ccc5c4)c3)CC2)=C(c2ccc(Cl)cc2)C1 [Example 244, N-[(5-chloro-6-{[(2S)-4-(cyanomethyl)morpholin-2-yl]methoxy}pyridin-3-yl)sulfonyl]-4-(4-{[2-(4-chlorophenyl)-4,4-dimethylcyclohex-1-en-1-yl]methyl}piperazin-1-yl)-2-(1H-pyrrolo[2,3-b]pyridin-5-yloxy)benzamide]",794 nM
13,"CN(C)CC(=O)N1CCO[C@H](COc2ncc(S(=O)(=O)NC(=O)c3ccc(N4CCN(CC5=C(c6ccc(Cl)cc6)CC(C)(C)CC5)CC4)cc3Oc3cnc4[nH]ccc4c3)cc2Cl)C1 [Example 245, N-[(5-chloro-6-{[(2S)-4-(N,N-dimethylglycyl)morpholin-2-yl]methoxy}pyridin-3-yl)sulfonyl]-4-(4-{[2-(4-chlorophenyl)-4,4-dimethylcyclohex-1-en-1-yl]methyl}piperazin-1-yl)-2-(1H-pyrrolo[2,3-b]pyridin-5-yloxy)benzamide]",83.6 nM
14,"CC1(C)CCC(CN2CCN(c3ccc(C(=O)NS(=O)(=O)c4cnc(OC[C@H]5CN(CC#N)CCO5)c(Cl)c4)c(Oc4cnc5[nH]ccc5c4)c3)CC2)=C(c2ccc(Cl)cc2)C1 [Example 246, N-[(5-chloro-6-{[(2R)-4-(cyanomethyl)morpholin-2-yl]methoxy}pyridin-3-yl)sulfonyl]-4-(4-{[2-(4-chlorophenyl)-4,4-dimethylcyclohex-1-en-1-yl]methyl}piperazin-1-yl)-2-(1H-pyrrolo[2,3-b]pyridin-5-yloxy)benzamide]",402 nM
15,"CN(C)CC(=O)N1CCO[C@@H](COc2ncc(S(=O)(=O)NC(=O)c3ccc(N4CCN(CC5=C(c6ccc(Cl)cc6)CC(C)(C)CC5)CC4)cc3Oc3cnc4[nH]ccc4c3)cc2Cl)C1 [Example 247, N-[(5-chloro-6-{[(2R)-4-(N,N-dimethylglycyl)morpholin-2-yl]methoxy}pyridin-3-yl)sulfonyl]-4-(4-{[2-(4-chlorophenyl)-4,4-dimethylcyclohex-1-en-1-yl]methyl}piperazin-1-yl)-2-(1H-pyrrolo[2,3-b]pyridin-5-yloxy)benzamide]",93 nM
16,"CC1(C)CCC(CN2CCN(c3ccc(C(=O)NS(=O)(=O)c4cnc(OCC5(F)CCOCC5)c(F)c4)c(Oc4cnc5[nH]ccc5c4)c3)CC2)=C(c2ccc(Cl)cc2)C1 [Example 248, 4-(4-{[2-(4-chlorophenyl)-4,4-dimethylcyclohex-1-en-1-yl]methyl}piperazin-1-yl)-N-({5-fluoro-6-[(4-fluorotetrahydro-2H-pyran-4-yl)methoxy]pyridin-3-yl}sulfonyl)-2-(1H-pyrrolo[2,3-b]pyridin-5-yloxy)benzamide]",99.6 nM
17,"CC1(C)CCC(CN2CCN(c3ccc(C(=O)NS(=O)(=O)c4cnc(OCC(C)(CO)CO)c(Cl)c4)c(Oc4cnc5[nH]ccc5c4)c3)CC2)=C(c2ccc(Cl)cc2)C1 [Example 250, N-({5-chloro-6-[3-hydroxy-2-(hydroxymethyl)-2-methylpropoxy]pyridin-3-yl}sulfonyl)-4-(4-{[2-(4-chlorophenyl)-4,4-dimethylcyclohex-1-en-1-yl]methyl}piperazin-1-yl)-2-(1H-pyrrolo[2,3-b]pyridin-5-yloxy)benzamide]",> 1000 nM
18,"CC1(C)CCC(CN2CCN(c3ccc(C(=O)NS(=O)(=O)c4ccc(OCC5(F)CCOCC5)nc4)c(Oc4cnc5[nH]ccc5c4)c3)CC2)=C(c2ccc(Cl)cc2)C1 [Example 251, 4-(4-{[2-(4-chlorophenyl)-4,4-dimethylcyclohex-1-en-1-yl]methyl}piperazin-1-yl)-N-({6-[(4-fluorotetrahydro-2H-pyran-4-yl)methoxy]pyridin-3-yl}sulfonyl)-2-(1H-pyrrolo[2,3-b]pyridin-5-yloxy)benzamide]",918 nM

# Reference: patent US20240043404A1 (AbbVie Inc., priority 2009, published 2024)
